Data published in patent US5559141A, “Selective aromatase inhibiting 4(5)-imidazoles” (Orion-yhtyma Oy, priority 1991, dated 1996).

Columns and labels:
desmolase = test: inhibition of cholesterol side chain cleavage (SCC) activity (desmolase); format: biochemical; details: mitochondrial fraction from human placenta or bovine adrenals, 37° C., 30 min; read-out: DESMOLASE IC-50
Procedure: Incubations were carried out in 1,5 ml Eppendorf plastic tubes, and an Eppendorf shaker, centrifuge and incubator were used as a unit. […] Controls contained all the above substances but the enzyme preparation was inactivated prior to the incubation by the addition of 900 μof methanol. The mitochondrial fraction (1 mg protein) from human placenta or bovine adrenals was used as a source of enzyme. After 30 min incubation at 37° C., the reaction was terminated by the addition of 900 μl of methanol; 1500 dpm of marker ^14 C-4-pregnenolone was added to each incubate and the tubes were vigorously shaken. […] The column was washed with one ml of 75% methanol and then with 3 ml of 80% methanol. The 80% methanol eluate was run into the counting vial and 10 ml of scintillation liquid was added. Radioactivity was counted using a double-label program on a liquid scintillation counter (LKB RackBeta). Typical activities for placental and bovine adrenal enzyme preparation were 0,5-3 and 50-100 pmol pregnenolone formed/mg protein/min,respectively.
In inhibition experiments, the substance (final concentration range from 1 to 1000 μM) was added into incubation mixture in a volume of 10-20 μl, usually as methanol or ethanol solution. The same volume of the solute was added into control incubation vial.

[1] = acute toxicity, LD50, oral, mice; details: mouse, in vivo, young adult female NMRI-Stmin mice
Procedure: Acute toxicity, LD50, was determined by using young adult female mice of NMRI-Stmin. The administration of the test compounds was oral.

human aromatase = biological target: T1, human aromatase (Homo sapiens, UniProt P11511); test: in vitro inhibition of aromatase (human placental microsomes, 3H2O release); format: biochemical; details: 37° C., 40 min, read-out: AROMATASE IC-50 (converted)
T1 construct: The enzyme was prepared from human placenta, which is rich of the enzyme; from tissue; host or cells: human placenta, microsomal fraction (100000×g precipitate), not further purified
T1 sequence (P11511 1-503): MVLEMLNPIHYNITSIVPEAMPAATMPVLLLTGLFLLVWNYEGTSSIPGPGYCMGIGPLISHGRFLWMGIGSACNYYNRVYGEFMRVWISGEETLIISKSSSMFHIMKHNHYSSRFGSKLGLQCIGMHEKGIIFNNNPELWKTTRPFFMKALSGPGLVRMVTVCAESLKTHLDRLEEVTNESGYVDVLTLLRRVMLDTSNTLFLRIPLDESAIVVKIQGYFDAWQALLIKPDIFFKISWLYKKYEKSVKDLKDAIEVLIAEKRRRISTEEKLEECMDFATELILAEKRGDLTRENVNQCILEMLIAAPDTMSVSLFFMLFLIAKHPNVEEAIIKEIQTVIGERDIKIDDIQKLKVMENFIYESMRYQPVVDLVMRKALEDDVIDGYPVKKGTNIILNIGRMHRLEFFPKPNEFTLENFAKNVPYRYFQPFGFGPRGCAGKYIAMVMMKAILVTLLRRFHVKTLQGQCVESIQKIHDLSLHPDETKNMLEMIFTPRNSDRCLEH
Procedure: Human aromatase enzyme was used. The enzyme was prepared from human placenta, which is rich of the enzyme. Microsomal fraction (100000×g precipitate) was prepared by centrifugation. The enzyme preparation was used without further purification. […] The incubation was camed out at 37° C. for 40 min. Aromatization of 1,2[^3 H]-androstene-3,17-dione results in the production of ^3 H2 O. The tritiated water and the tritiated substrate are easily separated by a Sep-Pak™ minicolumn, which absorbs the steroid but allows free water elution. Radioactivity was counted by a liquid scintillation counter. Aromatase inhibition was evaluated by comparing the ^3 H2 O-radioactivity of inhibitor treated samples to controls containing no inhibitor. IC-50 values were calculated as concentrations which inhibited the enzyme activity 50%.

Row | SMILES | IC50 (desmolase) [µM] | LD50 [1] [mg/kg] | IC50 (human aromatase) [µM]
1 | N#Cc1ccc(C(CCc2c[nH]cn2)c2ccc(F)cc2)cc1 (stereo not shown) [Compound 3a, 4-[3-(4-cyanophenyl)-3-(4-fluorophenyl)propyl]-1H-imidazole] | 43 | 210 | 
2 | N#Cc1ccc(C(CCCc2ccc(F)cc2)c2c[nH]cn2)cc1 (stereo not shown) [Compound 2b, 4-[1-(4-cyanophenyl)-4-(4-fluorophenyl)butyl]-1H-imidazole] | 20 |  | 
3 | N#Cc1ccc(C(=CCc2ccc(F)cc2)c2c[nH]cn2)cc1 (single isomer, unassigned; isomer a) [Compound 6b, 4-[1-(4-cyanophenyl)-3-(4-fluorophenyl)-1-propenyl]-1H-imidazole, isomer a] | 36 | > 400 | 
4 | N#Cc1ccc(C(CCc2c[nH]cn2)c2ccc(C#N)cc2)cc1 [Compound 2a, 4-[3,3-bis(4-cyanophenyl)propyl]-1H-imidazole] | 36 |  | 
5 | N#Cc1ccc(C(=CCCc2ccc(F)cc2)c2c[nH]cn2)cc1 [Compound 3b, 4-[1-(4-cyanophenyl)-4-(4-fluorophenyl)-1-butenyl)-1H-imidazole] | 26 |  | 
6 | N#Cc1ccc(C(CCCc2ccccc2)c2c[nH]cn2)cc1 (stereo not shown) [Compound 1b, 4-[1-(4-cyanophenyl)-4-phenylbutyl]-1H-imidazole] | 12 |  | 
7 | N#Cc1ccc(C(=CCCc2ccc(F)cc2)c2c[nH]cn2)cc1 (single isomer, unassigned; isomer a) [Compound 4b, 4-[1-(4-cyanophenyl)-4-(4-fluorophenyl)-1-butenyl]-1H-imidazole, isomer a] | 33 |  | 
8 | N#Cc1ccc(C(CCc2c[nH]cn2)c2ccccc2)cc1 (stereo not shown) [Compound 1a, 4-[3-(4-cyanophenyl)-3-phenylpropyl]-1H-imidazole] | 14 |  | 
9 | N#Cc1ccc(C(=CCc2cncn2Cc2ccccc2)c2ccc(C#N)cc2)cc1 [Compound 5a, 1-benzyl-5-[3,3-bis(4-cyanophenyl)-2-propenyl]-1H-imidazole] |  |  | 3.2
10 | N#Cc1ccc(C(CCCc2cncn2Cc2ccccc2)c2ccc(C#N)cc2)cc1 [Compound 7a, 1-benzyl-5-[4,4-bis(4-cyanophenyl)butyl]-1H-imidazole] | 22 |  | 5
11 | N#Cc1ccc(C(=CCCc2ccc(F)cc2)c2c[nH]cn2)cc1 (single isomer, unassigned; isomer b) [Compound 5b, 4-[1-(4-cyanophenyl)-4-(4-fluorophenyl)-1-butenyl]-1H-imidazole, isomer b] | > 1000 |  | 
12 | N#Cc1ccc(C(CCc2c[nH]cn2)c2ccc(C(F)(F)F)cc2)cc1 (stereo not shown) [Compound 9a, 4-[3-(4-cyanophenyl)-3-(4-trifluoromethylphenyl)propyl]-1H-imidazole] | 64 |  | 
13 | COc1ccc(C(CCc2c[nH]cn2)c2ccc(C#N)cc2)cc1 (stereo not shown) [Compound 10a, 4-[3-(4-cyanophenyl)-3-(4-methoxyphenyl)propyl]-1H-imidazole] | 33 |  | 
14 | N#Cc1ccc(CC=C(c2ccc(F)cc2)c2c[nH]cn2)cc1 [Compound 8b, 4-[3-(4-cyanophenyl)-1-(4-fluorophenyl)-1-propenyl]-1H-imidazole] |  |  | 1
15 | N#Cc1ccc(C(=CCc2c[nH]cn2)c2ccc(C#N)cc2)cc1 [Compound 8a, 4-[3,3-bis(4-cyanophenyl)-2-propenyl]-1H-imidazole] | 33 |  | 0.97
16 | N#Cc1ccc(C(=CCc2c[nH]cn2)c2ccc(F)cc2)cc1 [Compound 4a, 4-[3-(4-cyanophenyl)-3-(4-fluorophenyl)-2-propenyl]-1H-imidazole] | 62 |  | 0.65
17 | N#Cc1ccc(C(CCCc2c[nH]cn2)c2ccc(C#N)cc2)cc1 [Compound 6a, 4-[4,4-bis(4-cyanophenyl)butyl]-1H-imidazole] | 47 |  | 
